Several values for one entry are separate records, joined by “and”; a condition that tells them apart may be missing. Identical values can stand only once. Inconclusive results and toxic doses are left out. Cut-off read from the data, not from the text of the source: active = T/C of 150% or more; inactive = T/C below 125%.
Test system: L1210 leukemia ip in BDF1 mice, survival T/C
Experiment: NCI In Vivo Anticancer Drug Screen. Data for tumor model L1210 Leukemia (intraperitoneal) in B6D2F1 (BDF1) mice
Details: endpoint: mean survival time, higher = longer survival
In short: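 Transplanted-tumor mice were given test agent; controls received vehicle only. Survival readings from the two groups were divided (treated over control).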

[1] = dose: 100.0 mg/kg/injection, schedule: Q01DX009 (ip), vehicle: Klucel (hydroxypropylcellulose) (HPC)
[2] = dose: 100.0 mg/kg/injection, schedule: Q01DX009 (ip), vehicle: saline with Tween-80
[3] = dose: 100.0 mg/kg/injection, schedule: Q04DX003 (ip), vehicle: Klucel (hydroxypropylcellulose) (HPC)
[4] = dose: 200.0 mg/kg/injection, schedule: Q01DX009 (ip), vehicle: Klucel (hydroxypropylcellulose) (HPC)
[5] = dose: 200.0 mg/kg/injection, schedule: Q01DX009 (ip), vehicle: saline with Tween-80
[6] = dose: 200.0 mg/kg/injection, schedule: Q04DX003 (ip), vehicle: saline with Tween-80
[7] = dose: 400.0 mg/kg/injection, schedule: Q01DX009 (ip), vehicle: Klucel (hydroxypropylcellulose) (HPC)
[8] = dose: 400.0 mg/kg/injection, schedule: Q01DX009 (ip), vehicle: saline with Tween-80
[9] = dose: 400.0 mg/kg/injection, schedule: Q04DX003 (ip), vehicle: saline with Tween-80
[10] = dose: 100.0 mg/kg/injection, schedule: Q01DX009 (ip), vehicle: saline
[11] = dose: 100.0 mg/kg/injection, schedule: Q04DX003 (ip), vehicle: saline
[12] = dose: 200.0 mg/kg/injection, schedule: Q01DX009 (ip), vehicle: saline
[13] = dose: 200.0 mg/kg/injection, schedule: Q04DX003 (ip), vehicle: saline
[14] = dose: 400.0 mg/kg/injection, schedule: Q04DX003 (ip), vehicle: saline
[15] = dose: 100.0 mg/kg/injection, schedule: Q01DX001 (ip), vehicle: saline with Tween-80
[16] = dose: 100.0 mg/kg/injection, schedule: Q04DX002 (ip), vehicle: saline with Tween-80
[17] = dose: 200.0 mg/kg/injection, schedule: Q01DX001 (ip), vehicle: saline with Tween-80
[18] = dose: 200.0 mg/kg/injection, schedule: Q04DX002 (ip), vehicle: saline with Tween-80
[19] = dose: 400.0 mg/kg/injection, schedule: Q01DX001 (ip), vehicle: saline with Tween-80
[20] = dose: 400.0 mg/kg/injection, schedule: Q04DX002 (ip), vehicle: saline with Tween-80
[21] = dose: 400.0 mg/kg/injection, schedule: Q01DX009 (ip), vehicle: saline
[22] = dose: 100.0 mg/kg/injection, schedule: Q01DX001 (ip), vehicle: saline

Measured: T/C

O=C(Oc1c(Cl)cc(Cl)cc1Cl)c1ccccc1
inactive: [1] 93 % of control | [2] 90 % of control | [3] 93 % of control | dose: 100.0 mg/kg/injection, schedule: Q04DX003 (ip), vehicle: saline with Tween-80 98 % of control | [4] 96 % of control | [5] 91 % of control | dose: 200.0 mg/kg/injection, schedule: Q04DX003 (ip), vehicle: Klucel (hydroxypropylcellulose) (HPC) 96 % of control | [6] 98 % of control | [7] 98 % of control | [8] 106 % of control | dose: 400.0 mg/kg/injection, schedule: Q04DX003 (ip), vehicle: Klucel (hydroxypropylcellulose) (HPC) 98 % of control | [9] 96 % of control

NC(N)=NC(N)=Nc1ccccc1-c1ccccc1
inactive: [1] 111 % of control | [4] 103 % of control | [7] 86 % of control

CCOP(=O)(CCP(=O)(CCP(=O)(OCC)OCC)CCP(=O)(OCC)OCC)OCC
inactive: dose: 50.0 mg/kg/injection, schedule: Q01DX009 (ip), vehicle: saline 94 % of control | dose: 50.0 mg/kg/injection, schedule: Q04DX003 (ip), vehicle: saline 103 % of control | [10] 94 % of control | [11] 103 % of control | [12] 98 % of control | [13] 101 % of control | [14] 98 % of control

Cc1cc2c([N+](=O)[O-])c3ccc(N4CCCCC4)nn3c2n[n+]1[O-]
inactive: dose: 31.3 mg/kg/injection, schedule: Q04DX002 (ip), vehicle: Klucel (hydroxypropylcellulose) (HPC) 95 % of control | dose: 62.5 mg/kg/injection, schedule: Q04DX002 (ip), vehicle: Klucel (hydroxypropylcellulose) (HPC) 111 % of control | dose: 125.0 mg/kg/injection, schedule: Q04DX002 (ip), vehicle: Klucel (hydroxypropylcellulose) (HPC) 122 % of control

CC(=O)[O][Hg][C]([Hg][O]C(C)=O)([Hg][O]C(C)=O)[Hg][O]C(C)=O
inactive: dose: 100.0 mg/kg/injection, schedule: Q01DX001 (ip), vehicle: Klucel (hydroxypropylcellulose) (HPC) 91 % of control | dose: 200.0 mg/kg/injection, schedule: Q01DX001 (ip), vehicle: Klucel (hydroxypropylcellulose) (HPC) 96 % of control | dose: 400.0 mg/kg/injection, schedule: Q01DX001 (ip), vehicle: Klucel (hydroxypropylcellulose) (HPC) 89 % of control

COc1cc2cc3c4cc(OC)c(OC)cc4cc[n+]3cc2cc1OC
inactive: dose: 10.0 mg/kg/injection, schedule: Q01DX009 (ip), vehicle: saline 92 % of control | dose: 20.0 mg/kg/injection, schedule: Q01DX009 (ip), vehicle: saline 116 % of control | dose: 40.0 mg/kg/injection, schedule: Q01DX009 (ip), vehicle: saline 118 % of control | dose: 80.0 mg/kg/injection, schedule: Q01DX009 (ip), vehicle: saline 110 % of control | dose: 160.0 mg/kg/injection, schedule: Q01DX009 (ip), vehicle: saline 113 % of control | dose: 320.0 mg/kg/injection, schedule: Q01DX009 (ip), vehicle: saline 93 % of control

ClCCCN1c2ccccc2CCc2ccccc21
inactive: dose: 100.0 mg/kg/injection, schedule: Q04DX003 (ip), vehicle: acetone 100 % of control | dose: 200.0 mg/kg/injection, schedule: Q04DX003 (ip), vehicle: acetone 100 % of control | dose: 400.0 mg/kg/injection, schedule: Q04DX003 (ip), vehicle: acetone 103 % of control

Cc1ccc(NC2=C(Cl)C(=O)C(Nc3ccc(C)cc3)=C(Cl)C2=O)cc1
inactive: dose: 50.0 mg/kg/injection, schedule: Q01DX001 (ip), vehicle: carboxymethylcellulose (CMC) 97 % of control | dose: 100.0 mg/kg/injection, schedule: Q01DX001 (ip), vehicle: carboxymethylcellulose (CMC) 95 % of control | dose: 200.0 mg/kg/injection, schedule: Q01DX001 (ip), vehicle: carboxymethylcellulose (CMC) 90 % of control | dose: 400.0 mg/kg/injection, schedule: Q01DX001 (ip), vehicle: carboxymethylcellulose (CMC) 92 % of control

CCOC(=O)c1ccc(NC(=O)N(C2CCCCC2)C2CCCCC2)cc1
inactive: [15] 86 % of control | [2] 101 % of control | [16] 103 % of control and 90 % of control | [17] 86 % of control | [5] 92 % of control | [18] 94 % of control | [6] 94 % of control | [19] 93 % of control | [8] 101 % of control | [20] 94 % of control and 90 % of control | [9] 91 % of control

COc1ccc(CNCCO)cc1
inactive: [10] 96 % of control | [11] 96 % of control | [12] 91 % of control | [13] 98 % of control | [21] 97 % of control | [14] 93 % of control

CCOC(=O)Nc1ccccc1-c1ccccc1
inactive: dose: 100.0 mg/kg/injection, schedule: Q04DX002 (sc), vehicle: olive oil, sesame oil, peanut oil 94 % of control | dose: 200.0 mg/kg/injection, schedule: Q04DX002 (sc), vehicle: olive oil, sesame oil, peanut oil 105 % of control | dose: 400.0 mg/kg/injection, schedule: Q04DX002 (sc), vehicle: olive oil, sesame oil, peanut oil 97 % of control

CC(=O)c1cccc(NC(=O)c2ccc(F)cc2)c1
inactive: [2] 100 % of control | [5] 98 % of control | [8] 88 % of control

c1ccc(CCc2ccccc2)cc1
inactive: [2] 91 % of control | [16] 95 % of control | [5] 91 % of control | [18] 98 % of control | [8] 94 % of control | [20] 98 % of control

O=C(NCCCO)C1C(c2ccccc2)C1c1ccccc1 (stereo unspecified)
inactive: [16] 108 % of control | [18] 102 % of control | [20] 102 % of control

O=C1OC(=O)C(=C(c2ccccc2)c2ccccc2)C1=C(c1ccccc1)c1ccccc1
inactive: [1] 101 % of control | [4] 92 % of control | [7] 92 % of control

CCOC(=O)c1cnc(SC)nc1N(C)c1ccccc1
inactive: dose: 44.0 mg/kg/injection, schedule: Q04DX003 (ip), vehicle: Klucel (hydroxypropylcellulose) (HPC) 98 % of control | dose: 66.0 mg/kg/injection, schedule: Q04DX003 (ip), vehicle: Klucel (hydroxypropylcellulose) (HPC) 99 % of control | dose: 67.0 mg/kg/injection, schedule: Q04DX003 (ip), vehicle: Klucel (hydroxypropylcellulose) (HPC) 95 % of control | [3] 98 % of control and 101 % of control | dose: 150.0 mg/kg/injection, schedule: Q04DX003 (ip), vehicle: Klucel (hydroxypropylcellulose) (HPC) 95 % of control and 97 % of control

CCOC(=O)CCSc1ccc(NC(C)=O)cc1
inactive: [15] 103 % of control | [17] 111 % of control | [19] 97 % of control

Cc1cccc(Cl)c1N=Nc1sc(N)nc1C
inactive: dose: 75.0 mg/kg/injection, schedule: Q01DX001 (ip), vehicle: saline 105 % of control | dose: 150.0 mg/kg/injection, schedule: Q01DX001 (ip), vehicle: saline 105 % of control

COC1=C2C[C@@H](C)C[C@@H](OC)[C@@H](O)[C@H](C)/C=C(\C)[C@@H](OC(N)=O)[C@H](OC)/C=C\C=C(/C)C(=O)NC(=CC1=O)C2=O
inactive: dose: 0.13 mg/kg/injection, schedule: Q01DX009 (ip), vehicle: saline with Tween-80 103 % of control | dose: 0.25 mg/kg/injection, schedule: Q01DX009 (ip), vehicle: saline with Tween-80 103 % of control | dose: 0.5 mg/kg/injection, schedule: Q01DX009 (ip), vehicle: saline with Tween-80 98 % of control | dose: 1.0 mg/kg/injection, schedule: Q01DX009 (ip), vehicle: saline with Tween-80 101 % of control | dose: 2.0 mg/kg/injection, schedule: Q01DX009 (ip), vehicle: saline with Tween-80 103 % of control | dose: 4.0 mg/kg/injection, schedule: Q01DX009 (ip), vehicle: saline with Tween-80 108 % of control

CNc1ncnc2nc(Cl)[nH]c12
inactive: [22] 108 % of control

C=COC(=O)NC(CCC(=O)OC)C(=O)O (stereo unspecified)
inactive: [22] 92 % of control | dose: 200.0 mg/kg/injection, schedule: Q01DX001 (ip), vehicle: saline 101 % of control

[O-][N+]1=CCCC1
inactive: [10] 89 % of control | [11] 104 % of control | [12] 91 % of control | [13] 107 % of control | [21] 92 % of control | [14] 105 % of control

From PubChem BioAssay AID248 (DTP/NCI, 2004)
